Test system: YAP
Assay: YAP phosphorylation inhibitory action in SKOV3 (HTRF)
Assay type: cell-based, human
Conditions: 10 μM, 1 hr, non-treatment 100%
Procedure: Human ovarian cancer cell line SKOV3 (manufactured by DS Pharma Biomedical Co., Ltd.) was precultured using a 15% FBS-containing McCoy's 5a medium (manufactured by Sigma-Aldrich) (single layer culture). The above-mentioned cells in the logarithmic growth phase were washed with PBS. A 0.25% (w/v) trypsin-1 mmol/L ethylenediaminetetraacetic acid (EDTA) solution (manufactured by FUJIFILM Wako Pure Chemical Corporation) was added and the adherent cells were incubated at 37° C. for 3 min and detached. The above-mentioned medium was added, and the cells were centrifuged and resuspended in the same medium.
According to the method of patent document 1 (WO 2014/017513), a composition of 10% FBS-containing DMEM medium (Phenol-red free, manufactured by FUJIFILM Wako Pure Chemical Corporation) containing 0.015% (w/v) deacylated gellan gum (KELCOGEL CG-LA, manufactured by SANSHO Co., Ltd.) was prepared using FCeM-series Preparation Kit (manufactured by FUJIFILM Wako Pure Chemical Corporation). Then, various cells prepared above were suspended in the above-mentioned medium composition (3D culture conditions) added with deacylated gellan gum or a medium without the addition (2D culture conditions), and seeded on a 50 μL/well (manufactured by Corning Incorporated, a 96 well flat bottom plate, #3585, 2D culture conditions) or 25 μL/well (manufactured by Corning Incorporated, 96 well low adhesion flat bottom plate, #3474) at 100000 cells/well. The plate was allowed to stand at 37° C. in a 5% CO2 incubator, and the compound of the present invention diluted with the medium at 2 or 6 times the final concentration, DMSO, or the medium alone was added to the plate 3 hr after the seeding at 50 μL/well (2D culture conditions) or 5 μL/well (3D culture conditions) to make the final concentration of each compound 10 μM. After culture at 37° C. in a 5% CO2 incubator for 1 hr, the supernatant was aspirated, supplemented Lysis buffer (1-fold concentration, manufactured by Cisbio, YAP-total kit or YAP phospho-S27 kit) (50 μL) was added under 2D culture conditions, and supplemented Lysys buffer (4-fold concentration) (10 μL) was added to the culture supernatant under 3D conditions, and the mixture was stirred by a plate shaker for 30 min. Thereafter, the plate was centrifuged, 16 μL of the supernatant was transferred to a 384-well white plate (Corning, #4512), and each antibody solution (pYAP d2 antibody or Total-YAP d2 antibody, and pYAP Cryptate antibody or Total-YAP Cryptate antibody) included in the kit was added at 4 μL/well in total, and the mixture was allowed to stand at room temperature overnight. As a blank control, pYAP Cryptate antibody or Total-YAP Cryptate antibody alone was added to cells free of stimulation with compound and the mixture was treated in the same manner. The next day, the wavelengths at 665 nm and 615′ nm were measured in the HTRF mode of EnVision (manufactured by PerkinElmer).
The obtained signal was calculated as follows. Ratio=signal (665 nm)/signal (615 nm)×10000, ΔR=Signal(Ratio)−Background fluorescence, and the relative phosphorylated YAP amount or total YAP amount for each compound when ΔR of the compound non-addition group (non-treatment) is 100% is shown in Tables 7 and 8 (2D culture), and Tables 9 and 10 (3D culture). From the results, it was shown that the compound of the present zo invention has a YAP phosphorylation inhibitory action under both 2D and 3D culture conditions.

Structure (SMILES) | phosphorylated YAP amount (%) (2D culture conditions) | total YAP amount (%) (2D culture conditions) | phosphorylated YAP amount (%) (3D culture conditions) | total YAP amount (%) (3D culture conditions)
CC/C(=N\NC(=O)C(C)Nc1cccnc1)c1ccc(O)c(C)c1O (centres unmarked) [A-004, (E)-N′-(1-(2,4-dihydroxy-3-methylphenyl)propylidene)-2-(pyridin-3-ylamino)propanehydrazide] | 19 | 87 | 33 | 105
CC/C(=N\NC(=O)C(C)Nc1cncc(F)c1)c1ccc(O)c(C)c1O (centres unmarked) [A-007] | 16 | 91 | 21 | 96
